Values of other authors as cited in patent publication US20210069064A1, “A MANUFACTURING METHOD OF AN HERBAL MEDICINAL TABLET FORMULATION FOR TREATING OBESITY WHICH CAN BE […] ON SASANG CONS[…]” (NUBEBE CO., LTD., priority 2017, published 2021).

Settings: taken for 20 weeks or more

CN[C@@H](C)[C@H](O)c1ccccc1 [ephedrine]
weight and body fat change compared to the control group: weight and body fat loss
